Key:
Experiment in all cases: cells
Design in all cases: Anti-proliferation, 10-point dose response, CellTiter-Glo luminescence (MTT stated for KM12(Luc)), GI50 fitted in Prism
[1] = system: MKN28; settings: Homo sapiens, MKN-28, 72 h, read-out: GI50 (µM) a
Experimental: (§1) To obtain the GI50 value of a substance, cell viability was measured using MTT (G4000, Promega, USA) for KM12(Luc) cell and Cell titer glo (G7572, Promega, USA) for other cell lines. For adherent cells, cells were seeded at 5,000 cells/well in a 96-well plate and treated with a substance one day after cell seeding. For suspension cells, 10,000 cells/well were seeded and the substance was treated after 4 h stabilization of cells. The substance was treated at 10 points of 1:3 serial dilution (0–100 µmol/L) for 72 h. For MTT assay, 15 µL dye solution was added to each well and incubated 4 h at 37°C. 100 µL of solubilization solution was added and followed 1 hr incubation. Absorbance at 570 nm of each well was recorded using EnVision microplate reader (Perkin Elmer). For Cell titer glo assay, Cell titer glo reagent was treated in each well and measured the luminescence by EnVision microplate reader (Perkin Elmer). Viable cells in each well were normalized by using 0.5% DMSO-treated wells (100%). The inhibitor dose−response curve was fitted and GI50 values were calculated using Prism 7.0 software (GraphPad). All assays were performed in duplicate and the standard deviation (SD) was determined from two independent experiments. KM12(Luc) was purchased from the JCRB cell bank. KM12 (Luc) was used within 6 months after purchase and the DNA profiles were confirmed using a short tandem repeat (STR) analysis by the Korean Cell Line Bank. KM12(Luc) cells were maintained in DMEM supplemented with 10% FBS and antibiotics. Parental Ba/F3 cells were purchased from DSMZ and were grown in RPMI1640 supplemented with 10% FBS and antibiotics in the presence of IL3, Transformed Ba/F3 cell lines were grown in the same media without IL3. Cells used in this study were negative for mycoplasma contamination. AN3-CA, HEC1A, U138, 8505C, MKN28, MKN45, A172, A375, Capan-1 HeLa, HEP3B, MCF-7 and MIA-paca-2 cells were maintained in DMEM (Welgene, Korea) supplemented with 10% FBS and antibiotics (Welgene, Korea). Otherwise, all cells were maintained in RPMI (Welgene, Korea) supplemented with 10% FBS and antibiotics (Welgene, Korea). To identify AZD4547 sensitive cell lines other than FGFR-mutant driven cancer cells, GI50 values were determined for AZD4547 against 64 different cancer cell lines, including AN3-CA used as a positive control ( Figure 1A and Table S1 ). […] Also, inhibitory activity of AZD4547 against DDR1 or FLT3 allows suppression of proliferation of U-2-OS and MV4-11 ([43]). Therefore, our attention focused on the inhibitory activity of AZD4547 against KM12(Luc) cell lines which have the TPM3-NTRK1 fusion gene. To exclude the possibility that the anti-proliferation activity of AZD4547 against KM12(Luc) is a common characteristic of FGFR inhibitors, we determined if BGJ398, a representative FGFR inhibitor, is also capable of suppressing proliferation of KM12(Luc) cells ( Figure 1B ).

[2] = system: AN3-CA; settings: Homo sapiens, AN3-CA, 72 h, read-out: GI50 (µM) a
Experimental: as §1

[3] = system: UMUC3; settings: Homo sapiens, UMUC3, 72 h, read-out: GI50 (µM) a
Experimental: as §1

[4] = system: RS4-11; settings: Homo sapiens, RS4-11, 72 h, read-out: GI50 (µM) a
Experimental: as §1

[5] = system: SNU484; settings: SNU-484, 72 h, read-out: GI50 (µM) a
Experimental: as §1

[6] = system: NCI-H417; settings: Homo sapiens, NCI-H417, 72 h, read-out: GI50 (µM) a
Experimental: as §1

[7] = system: U-2-OS; settings: Homo sapiens, U2OS, 72 h, read-out: GI50 (µM) a
Experimental: as §1

[8] = system: DLD-1; settings: Homo sapiens, DLD-1, 72 h, read-out: GI50 (µM) a
Experimental: as §1

[9] = system: NCI-H1437; settings: Homo sapiens, NCI-H1437, 72 h, read-out: GI50 (µM) a
Experimental: as §1

[10] = system: A375; settings: Homo sapiens, A-375, 72 h, read-out: GI50 (µM) a
Experimental: as §1

[11] = system: PC-3; settings: Homo sapiens, PC-3, 72 h, read-out: GI50 (µM) a
Experimental: as §1

[12] = system: MDA-MB-453; settings: Homo sapiens, MDA-MB-453, 72 h, read-out: GI50 (µM) a
Experimental: as §1

`COc1cc(CCc2cc(NC(=O)c3ccc(N4C[C@@H](C)N[C@@H](C)C4)cc3)n[nH]2)cc(OC)c1` [AZD4547] showed a GI50 [1] of 10.9 µM, a GI50 [2] of 0.2 µM and a GI50 [3] of 46.3 µM. For the same compound, the GI50 [4] was 3.24 µM, the GI50 [5] was 24.6 µM and the GI50 [6] was 5.99 µM. For the same compound, the GI50 [7] was 0.43 µM, the GI50 [8] was 27.5 µM and the GI50 [9] was 40.3 µM. For the same compound, the GI50 [10] was 11.4 µM, the GI50 [11] was 10.6 µM and the GI50 [12] was 5.36 µM.

Source: paper PMC8591201, “Anti-Tumor Activity of AZD4547 Against NTRK1 Fusion Positive Cancer Cells Through Inhibition of NTRKs” (Frontiers in Oncology, 2021)
